According to patent US11834451B2 (priority 2021, dated 2023):
Read-outs that look alike come from different tables or passages of the source.

Experiments:
in vitro = settings: human
EV-A71 = experiment: microbe, parasite or virus in culture; assay type: cell-based, enterovirus A71 (EV-A71); settings: Enterovirus A, EVA71, RD
CVB3 Nancy virus = experiment: microbe, parasite or virus in culture; assay type: cell-based, coxsackievirus B3 (CVB3); settings: Enterovirus B, CVB3, Vero, read-out: EC50, Anti-CVB3 in Vero cells
EV-D68 = experiment: microbe, parasite or virus in culture; assay type: cell-based, enterovirus D68 (EV-D68); settings: Enterovirus D, EVD68, RD
EV-D68, EV-A71, and CVB3 = experiment: organism not typed; assay type: cell-based
Vero cells = settings: African green monkey
RD cells = settings: human
[1] = CC50, in RD cells (Anti-EV-A71)
[2] = read-out: EC50, Anti-EV-A71 Tainan/4643/1998 in RD cells
[3] = read-out: EC50, Anti-EV-D68 US/KY/14-18953 in RD cells

COCCNC(=O)c1cc(C2CC2)nc2c1cnn2C(C)C [Compound 7a, 6-cyclopropyl-N-(2-methoxyethyl)-1-(propan-2-yl)-1H-pyrazolo[3,4-b]pyridine-4-carboxamide]
CC50 (in vitro; [1]): 178000 nM

CC(C)n1ncc2c(C(=O)NCCN3CCCC3)cc(C3CC3)nc21 [Compound 7b, 6-cyclopropyl-1-(propan-2-yl)-N-[2-(pyrrolidin-1-yl)ethyl]-1H-pyrazolo[3,4-b]pyridine-4-carboxamide]
CC50 (in vitro; [1]): 46500 nM | EC50 (EV-A71; [2]): 200 nM | EC50 (CVB3 Nancy virus): 200 nM | EC50 (EV-D68; [3]): 100 nM

CCN(CC)CCNC(=O)c1cc(C2CC2)nc2c1cnn2C(C)C [Compound 7c, 6-cyclopropyl-N-[2-(diethylamino)ethyl]-1-(propan-2-yl)-1H-pyrazolo[3,4-b]pyridine-4-carboxamide]
EC50 values in words (summary across viruses) (EV-D68, EV-A71, and CVB3): submicromolar | EC50 (EV-A71; [2]): 300 nM | EC50 (CVB3 Nancy virus): 500 nM | EC50 (EV-D68; [3]): 400 nM

CC(C)n1ncc2c(C(=O)NC3CNC3)cc(C3CC3)nc21 [Compound 7e, N-(azetidin-3-yl)-6-cyclopropyl-1-(propan-2-yl)-1H-pyrazolo[3,4-b]pyridine-4-carboxamide]
EC50 (EV-D68; [3]): 1400 nM

CC(CN(C)C)NC(=O)c1cc(C2CC2)nc2c1cnn2C(C)C (stereo not drawn) [Compound 7f, 6-cyclopropyl-N-[1-(dimethylamino)propan-2-yl]-1-(propan-2-yl)-1H-pyrazolo[3,4-b]pyridine-4-carboxamide]
CC50 (in vitro; [1]): 72600 nM | EC50 (EV-A71; [2]): 100 nM | CC50 (Vero cells): > 300000 nM | EC50 (CVB3 Nancy virus): 40 nM | EC50 (EV-D68; [3]): 100 nM

CC(C)n1ncc2c(C(=O)NC3CCN(C)C3)cc(C3CC3)nc21 (stereo not drawn) [Compound 7g, 6-cyclopropyl-N-(1-methylpyrrolidin-3-yl)-1-(propan-2-yl)-1H-pyrazolo[3,4-b]pyridine-4-carboxamide]
EC50 (EV-D68, EV-A71, and CVB3; read-out: EC50 (text summary, virus not singled out)): 100 nM | CC50 (in vitro; [1]): 20700 nM | CC50 (in vitro; CC50, in RD cells (Anti-EV-D68)): 20700 nM | EC50 (EV-A71; [2]): 100 nM | EC50 (CVB3 Nancy virus): 100 nM | EC50 (EV-D68; [3]): 100 nM

CC(C)n1ncc2c(C(=O)NCCN)cc(C3CC3)nc21 [Compound 7i, N-(2-aminoethyl)-6-cyclopropyl-1-(propan-2-yl)-1H-pyrazolo[3,4-b]pyridine-4-carboxamide]
EC50 (EV-A71; [2]): 400 nM | EC50 (CVB3 Nancy virus): 900 nM | EC50 (EV-D68; [3]): 400 nM

CC(CN)NC(=O)c1cc(C2CC2)nc2c1cnn2C(C)C (stereo not drawn) [Compound 7j, N-(1-aminopropan-2-yl)-6-cyclopropyl-1-(propan-2-yl)-1H-pyrazolo[3,4-b]pyridine-4-carboxamide]
EC50 (EV-A71; [2]): 600 nM | EC50 (CVB3 Nancy virus): 300 nM | EC50 (EV-D68; [3]): 300 nM

CCN(CC)CCCNC(=O)c1cc(C2CC2)nc2c1cnn2C(C)C [Compound 7k, 6-cyclopropyl-N-[3-(diethylamino)propyl]-1-(propan-2-yl)-1H-pyrazolo[3,4-b]pyridine-4-carboxamide]
EC50 (EV-A71; [2]): 6100 nM | EC50 (CVB3 Nancy virus): 1700 nM | EC50 (EV-D68; [3]): 1900 nM

CC(C)n1ncc2c(C(=O)NCCCN(C)C)cc(C3CC3)nc21 [Compound 7l, 6-cyclopropyl-N-[3-(dimethylamino)propyl]-1-(propan-2-yl)-1H-pyrazolo[3,4-b]pyridine-4-carboxamide]
EC50 (EV-A71; [2]): 1800 nM | CC50 (Vero cells): > 200000 nM | EC50 (CVB3 Nancy virus): 400 nM | EC50 (EV-D68; [3]): 1200 nM

CNCCCNC(=O)c1cc(C2CC2)nc2c1cnn2C(C)C [Compound 7m, 6-cyclopropyl-N-[3-(methylamino)propyl]-1-(propan-2-yl)-1H-pyrazolo[3,4-b]pyridine-4-carboxamide]
CC50 (in vitro; [1]): 183000 nM | EC50 (EV-A71; [2]): 5300 nM | EC50 (CVB3 Nancy virus): 1600 nM | EC50 (EV-D68; [3]): 1700 nM

CC(C)c1cc(C(=O)NCCO)c2cnn(C(C)C)c2n1 [Compound 10b, N-(2-hydroxyethyl)-1,6-bis(propan-2-yl)-1H-pyrazolo[3,4-b]pyridine-4-carboxamide]
CC50 (RD cells): > 100000 nM

CC(C)c1cc(C(=O)NCCN)c2cnn(C(C)C)c2n1 [Compound 10e, N-(2-aminoethyl)-1,6-bis(propan-2-yl)-1H-pyrazolo[3,4-b]pyridine-4-carboxamide]
CC50 (in vitro; [1]): 170000 nM | EC50 (EV-A71; [2]): 600 nM | EC50 (CVB3 Nancy virus): 900 nM | EC50 (EV-D68; [3]): 600 nM

CC(CN)NC(=O)c1cc(C(C)C)nc2c1cnn2C(C)C (stereo not drawn) [Compound 10f, N-(1-aminopropan-2-yl)-1,6-bis(propan-2-yl)-1H-pyrazolo[3,4-b]pyridine-4-carboxamide]
CC50 (in vitro; [1]): 118000 nM | EC50 (EV-A71; [2]): 500 nM | EC50 (CVB3 Nancy virus): 600 nM | EC50 (EV-D68; [3]): 400 nM

CC(C)n1ncc2c(C(=O)NCCN(C)C)cc(C(C)(C)C)nc21 [Compound 11a, 6-tert-butyl-N-[2-(dimethylamino)ethyl]-1-(propan-2-yl)-1H-pyrazolo[3,4-b]pyridine-4-carboxamide]
CC50 (in vitro; [1]): 31400 nM | EC50 (EV-A71; [2]): 40 nM | EC50 (CVB3 Nancy virus): 100 nM | EC50 (EV-D68; [3]): 100 nM

CC(C)n1ncc2c(C(=O)NCCN)cc(C(C)(C)C)nc21 [Compound 11b, N-(2-aminoethyl)-6-tert-butyl-1-(propan-2-yl)-1H-pyrazolo[3,4-b]pyridine-4-carboxamide]
CC50 (in vitro; [1]): 24600 nM | EC50 (EV-A71; [2]): 200 nM | EC50 (CVB3 Nancy virus): 100 nM | EC50 (EV-D68; [3]): 100 nM

Cc1cc(C(=O)NCCN(C)C)c2cnn(C(C)C)c2n1 [Compound 12a, N-[2-(dimethylamino)ethyl]-6-methyl-1-(propan-2-yl)-1H-pyrazolo[3,4-b]pyridine-4-carboxamide]
EC50 (EV-A71; [2]): 100 nM | CC50 (Vero cells): > 300000 nM | EC50 (CVB3 Nancy virus): 200 nM | EC50 (EV-D68; [3]): 400 nM

Cc1cc(C(=O)NCCN(C)C)c2cnn(C3CCCC3)c2n1 [Compound 13, 1-cyclopentyl-N-[2-(dimethylamino)ethyl]-6-methyl-1H-pyrazolo[3,4-b]pyridine-4-carboxamide]
EC50 (EV-D68; [3]): 11100 nM

CCCn1ncc2c(C(=O)NCCN(C)C)cc(C)nc21 [Compound 14, N-[2-(dimethylamino)ethyl]-6-methyl-1-propyl-1H-pyrazolo[3,4-b]pyridine-4-carboxamide]
EC50 (EV-D68; [3]): 48400 nM

CCn1ncc2c(C(=O)NCCN(C)C)cc(C3CC3)nc21 [Compound 16, 6-cyclopropyl-N-[2-(dimethylamino)ethyl]-1-ethyl-1H-pyrazolo[3,4-b]pyridine-4-carboxamide]
EC50 values in words (summary across viruses) (EV-D68, EV-A71, and CVB3): single-digit micromolar range | EC50 (EV-A71; [2]): 1200 nM | CC50 (Vero cells): > 300000 nM | EC50 (CVB3 Nancy virus): 1800 nM | EC50 (EV-D68; [3]): 1700 nM

Cc1nn(C(C)(C)C)c2nc(C3CC3)cc(C(=O)NCCN(C)C)c12 [Compound 18a, 1-tert-butyl-6-cyclopropyl-N-[2-(dimethylamino)ethyl]-3-methyl-1H-pyrazolo[3,4-b]pyridine-4-carboxamide]
CC50 (in vitro; [1]): 45200 nM | EC50 (EV-A71; [2]): 3500 nM | EC50 (CVB3 Nancy virus): 1800 nM | EC50 (EV-D68; [3]): 800 nM

CNCCNC(=O)c1cc(C2CC2)nc2c1c(C)nn2C(C)(C)C [Compound 18b, 1-tert-butyl-6-cyclopropyl-3-methyl-N-[2-(methylamino)ethyl]-1H-pyrazolo[3,4-b]pyridine-4-carboxamide]
EC50 (EV-A71; [2]): 8400 nM | EC50 (CVB3 Nancy virus): 2900 nM | EC50 (EV-D68; [3]): 1100 nM

Cc1cc(C(=O)NCCN(C)C)c2c(C)nn(C(C)(C)C)c2n1 [Compound 19, 1-tert-butyl-N-[2-(dimethylamino)ethyl]-3,6-dimethyl-1H-pyrazolo[3,4-b]pyridine-4-carboxamide]
selectivity index across EV-D68 and EV-A71 strains tested (EV-D68, EV-A71, and CVB3): > 100 | EC50 (EV-D68, EV-A71, and CVB3; RD, read-out: EC50 values range against all EV-D68 and EV-A71 strains tested): 400 to 7400 nM | CC50 (in vitro; CC50 (EV-A71 A71 MP4 row group)): 236000 nM | CC50 (in vitro; CC50 (EV-A71 Tainan/4643/1998)): 236000 nM | CC50 (in vitro; CC50 (EV-A71 USA/CT/2016-19519)): 236000 nM | EC50 (EV-A71; [2]): 7400 nM | EC50 (EV-A71; read-out: EC50, EV-A71 A71 MP4): 2000 nM | EC50 (EV-A71; read-out: EC50, EV-A71 Tainan/4643/1998): 7400 nM | EC50 (EV-A71; read-out: EC50, EV-A71 USA/CT/2016-19519): 1300 nM | EC50 (CVB3 Nancy virus): 2100 nM | EC50 (EV-D68; [3]): 1000 nM | EC50 (EV-D68; read-out: EC50, EV-D68 US/IL/14-18952 (Clade B2)): 700 nM | EC50 (EV-D68; read-out: EC50, EV-D68 US/IL/14-18956 (Clade B2)): 400 nM | EC50 (EV-D68; read-out: EC50, EV-D68 US/KY/14-18953 (Clade D)): 1000 nM | EC50 (EV-D68; read-out: EC50, EV-D68 US/MO/14-18947 (Clade B1)): 400 nM | EC50 (EV-D68; read-out: EC50, EV-D68 US/MO/14-18949 (Clade B1)): 700 nM

CCCn1ncc2c(C(=O)NCCN(C)C)cc(C3CC3)nc21 [Compound 20, 6-cyclopropyl-N-[2-(dimethylamino)ethyl]-1-propyl-1H-pyrazolo[3,4-b]pyridine-4-carboxamide]
EC50 values in words (summary across viruses) (EV-D68, EV-A71, and CVB3): low single-digit or submicromolar | CC50 (in vitro; [1]): 57700 nM | EC50 (EV-A71; [2]): 2000 nM | EC50 (CVB3 Nancy virus): 2000 nM | EC50 (EV-D68; [3]): 1200 nM

CCC(C)n1ncc2c(C(=O)NCCN(C)C)cc(C3CC3)nc21 (stereo not drawn) [Compound 21, 1-(butan-2-yl)-6-cyclopropyl-N-[2-(dimethylamino)ethyl]-1H-pyrazolo[3,4-b]pyridine-4-carboxamide]
EC50 values in words (summary across viruses) (EV-D68, EV-A71, and CVB3): low single-digit or submicromolar | EC50 (EV-A71; [2]): 100 nM | EC50 (CVB3 Nancy virus): 100 nM | EC50 (EV-D68; [3]): 200 nM

CC(C1CC1)n1ncc2c(C(=O)NCCN(C)C)cc(C3CC3)nc21 (stereo not drawn) [Compound 22, 6-cyclopropyl-1-(1-cyclopropylethyl)-N-[2-(dimethylamino)ethyl]-1H-pyrazolo[3,4-b]pyridine-4-carboxamide]
EC50 values in words (summary across viruses) (EV-D68, EV-A71, and CVB3): low single-digit or submicromolar | EC50 (EV-A71; [2]): 200 nM | EC50 (CVB3 Nancy virus): 1900 nM | EC50 (EV-D68; [3]): 700 nM
